According to paper PMC5126668 (PeerJ, 2016):
Several values for one entry are separate records, joined by “and”; a condition that tells them apart may be missing. Equal entries are not always repeated. Where two headings read alike, the source gives them in different places.

Assays:
[1] = test system: HK-2 cells; assay: HK-2 cell viability, MTT assay, with or without co-cultured HLMs; assay type: cell-based, human; details: BAK combined with GA
Description: (§1) HK-2 cells obtained from Peking Union Medical College were maintained in D/F12 medium containing 10% fetal bovine serum, 2 mM glutamine and 1 × 10^5 U/L penicillin and streptomycin at 37 °C in a 5% CO2 atmosphere. […] The samples containing HLMs were prepared in an ice bath, and three replicates were tested for each dose. In brief, HK-2 cells (100 µL) were seeded at 3 × 10^5cells/mL in 96-well plates. After 12 h, 200 µL of the test compound was added. For the BAK and GA with HLMs group, GA was pre-incubated with NADPH in HLMs for 30 min at 37 °C and then mixed with BAK; for the other groups, all tested compounds except NADPH were mixed, and NADPH was then added to start the metabolic reaction. After 4 h of culture, 100 µL of 0.5 g/L MTT was added, and the cells were cultured for 4 h. Subsequently, 150 µL of 4% isopropanol was added to cells for 15 min at 37 °C, and the absorbance at 570 nm was then read by a microplate reader (Multiskan MK3, Thermo, USA). The relative cell viability (%) was calculated as follows: Mean Absorbance of Sample/Mean Absorbance of Vehicle Control × 100%.

[2] = as above; assay type: cell-based, human; details: human; for viability at 4 h, 30 µM: BAK 30 µM; for viability at 4 h, 75 µM: BAK 75 µM; for viability at 4 h, 90 µM: BAK 90 µM; for viability at 4 h, 45 µM: BAK 45 µM; for viability at 4 h, 60 µM: BAK 60 µM
Description: as §1

[3] = test system: BAK metabolism in HLMs; assay: Metabolic elimination of BAK in HLMs and its inhibition by GA (HPLC); assay type: in vitro ADME, human; details: for Remaining percentage of BAK (%) / remaining of BAK (%), single samples: BAK 10 µM; for Remaining percentage of BAK (%): HLMs 0.5 g/L, mean; for remaining of BAK (%), single samples: t=30 min
Description: The HLM mixtures were prepared on ice. […] At the end of the incubation (0 or 30 min), 200 µL of methanol-acetonitrile (1:1, V:V) solution containing tanshinone II A (internal standard) was added to terminate the reaction. The mixtures were then vortexed for 2 min followed by centrifugation at 14,500 rpm for 10 min. A 10 µL aliquot of the supernatant was then injected for HPLC analysis. […] RContr is the percentage of BAK remaining in the BAK group.

[4] = with HLM, raw data, read-out: cell viability(%), single values
[5] = HK-2 cells co-cultured with HLMs (0.16 g/L), with HLMs 0.16 g/L, 4 h, mean, read-out: HK-2 Cell viability (%)
[6] = HK-2 cells, without HLMs, without HLMs, 4 h, mean, read-out: HK-2 Cell viability (%)

SMILES: C=C[C@@](C)(/C=C/c1ccc(O)cc1)CCC=C(C)C [BAK, Bakuchiol]
- decreases in viability of HK-2 cells [1]: 25∼40%
- viability at 4 h, 30 µM [2, 4]: 98.8%
- viability at 4 h, 75 µM [2, 4]: 108%
- viability at 4 h, 90 µM [2, 4]: 88.2%
- viability at 4 h, 30 µM [2, 5]: 104 ± 4.32%
- viability at 4 h, 45 µM ([2]; HK-2 cells co-cultured with HLMs (0.16 g/L), with HLMs 0.16 g/L, 4 h, mean): 105 ± 9.39%
- viability at 4 h, 60 µM [2, 5]: 101 ± 9.76%
- viability at 4 h, 75 µM [2, 5]: 109 ± 3.19%
- viability at 4 h, 90 µM [2, 5]: 92.5 ± 2.07%
- viability at 4 h, 60 µM ([2]; HK-2 cells, without HLM, raw data, read-out: cell viability(%), single values): 80.5%
- viability at 4 h, 30 µM [2, 6]: 97.7 ± 10.7%
- viability at 4 h, 45 µM ([2]; HK-2 cells, without HLMs, 4 h, mean): 84.6 ± 13.8%
- viability at 4 h, 60 µM [2, 6]: 77.5 ± 4.69%
- viability at 4 h, 75 µM [2, 6]: 55 ± 11.3%
- viability at 4 h, 90 µM [2, 6]: 46.3 ± 12.5%
- 30min BAK metabolic percentage (%) ([3]; BAK 10 µM alone, HLMs, 30 min): 36.51%
- Remaining percentage of BAK (%) ([3]; GA 0 µM, 30 min): 63.49 ± 6.05% and 63.49%
- Remaining percentage of BAK (%) ([3]; GA 12.5 µM, 30 min): 71.60 ± 6.40% and 71.60%
- remaining of BAK (%), single samples ([3]; GA 12.5 µM): 64.61% and 73.02% and 77.17%
- Remaining percentage of BAK (%) ([3]; GA 62.5 µM, 30 min): 80.10 ± 6.81 % and 80.10%
- remaining of BAK (%), single samples ([3]; GA 62.5 µM): 85.51% and 72.46% and 82.34%
- remaining of BAK (%), single samples ([3]; GA 93.75 µM): 73.93% and 93.16% and 104.23%
- Remaining percentage of BAK (%) ([3]; GA 125.0 µM, 30 min): 97.24 ± 1.46 % and 97.24%
- remaining of BAK (%), single samples ([3]; GA 125 µM): 98.81% and 95.94% and 96.96%
- remaining of BAK (%), single samples ([3]; no GA, HLM 0.5 mg/ml): 56.87% and 64.87% and 68.72%
